Biological target: Alpha-2 adrenergic receptor (Rattus norvegicus)
Experiment: Compound was tested for its binding affinity against Alpha-2 adrenergic receptor

Ki: 302 nM
SMILES: CCCN(CCCCCCN1CCC[C@@H]1Cc1ccc(O)c(O)c1)CCc1ccc(O)c(O)c1
